A short description of assay [1]: Displacement of [3H]Ro15-1788 from rat GABAA alpha-1-beta-2-gamma-2 receptor expressed in HEK293 cells after 1 hr assessed as residual binding by liquid scintillation counting.
The target of assay [2] is Gamma-aminobutyric acid receptor subunit alpha-1 (Rattus norvegicus) (UniProt P62813). The assay can be described thus: Activity at rat wild type GABAA alpha-1-beta-2-gamma-2 receptor expressed in xenopus oocytes assessed as GABA-elicited response by two electrode voltage clamp method relative to control.
Sequence of Gamma-aminobutyric acid receptor subunit alpha-1 (Rattus norvegicus) (P62813 whole entry, looked up): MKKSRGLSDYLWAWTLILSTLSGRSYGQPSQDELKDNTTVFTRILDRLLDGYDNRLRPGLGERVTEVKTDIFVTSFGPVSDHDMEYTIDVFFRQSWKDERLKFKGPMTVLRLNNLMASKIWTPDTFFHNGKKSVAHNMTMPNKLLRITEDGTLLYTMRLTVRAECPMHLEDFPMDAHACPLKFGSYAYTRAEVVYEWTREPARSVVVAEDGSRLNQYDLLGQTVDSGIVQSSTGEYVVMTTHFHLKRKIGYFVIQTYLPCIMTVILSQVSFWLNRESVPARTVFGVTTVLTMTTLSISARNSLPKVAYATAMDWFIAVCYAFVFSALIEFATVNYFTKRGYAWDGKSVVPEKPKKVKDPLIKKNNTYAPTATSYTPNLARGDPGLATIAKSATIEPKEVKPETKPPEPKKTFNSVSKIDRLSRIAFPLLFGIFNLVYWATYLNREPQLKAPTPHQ

With `CCOC(=O)c1ncn2c1CN(C)C(=O)c1cc(N=C=S)ccc1-2` [8-Isothiocyanato-5-methyl-6-oxo-5,6-dihydro-4H-2,5,10b-triaza-benzo[e]azulene-3-carboxylic acid ethyl ester], the Kd in assay [1] came to 878 nM. Further, the EC50 in assay [2] stood at 250 nM.
Take `CCOC(=O)c1ncn2c1CN(C)C(=O)c1cc(N=[N+]=[N-])ccc1-2` [RO-154513]: in assay [2], the EC50 amounted to 1.1 nM.
